In data set [1] the target is T1, wild type androgen receptor (AR) (Homo sapiens, UniProt P10275).
T1 sequence (P10275 1-920): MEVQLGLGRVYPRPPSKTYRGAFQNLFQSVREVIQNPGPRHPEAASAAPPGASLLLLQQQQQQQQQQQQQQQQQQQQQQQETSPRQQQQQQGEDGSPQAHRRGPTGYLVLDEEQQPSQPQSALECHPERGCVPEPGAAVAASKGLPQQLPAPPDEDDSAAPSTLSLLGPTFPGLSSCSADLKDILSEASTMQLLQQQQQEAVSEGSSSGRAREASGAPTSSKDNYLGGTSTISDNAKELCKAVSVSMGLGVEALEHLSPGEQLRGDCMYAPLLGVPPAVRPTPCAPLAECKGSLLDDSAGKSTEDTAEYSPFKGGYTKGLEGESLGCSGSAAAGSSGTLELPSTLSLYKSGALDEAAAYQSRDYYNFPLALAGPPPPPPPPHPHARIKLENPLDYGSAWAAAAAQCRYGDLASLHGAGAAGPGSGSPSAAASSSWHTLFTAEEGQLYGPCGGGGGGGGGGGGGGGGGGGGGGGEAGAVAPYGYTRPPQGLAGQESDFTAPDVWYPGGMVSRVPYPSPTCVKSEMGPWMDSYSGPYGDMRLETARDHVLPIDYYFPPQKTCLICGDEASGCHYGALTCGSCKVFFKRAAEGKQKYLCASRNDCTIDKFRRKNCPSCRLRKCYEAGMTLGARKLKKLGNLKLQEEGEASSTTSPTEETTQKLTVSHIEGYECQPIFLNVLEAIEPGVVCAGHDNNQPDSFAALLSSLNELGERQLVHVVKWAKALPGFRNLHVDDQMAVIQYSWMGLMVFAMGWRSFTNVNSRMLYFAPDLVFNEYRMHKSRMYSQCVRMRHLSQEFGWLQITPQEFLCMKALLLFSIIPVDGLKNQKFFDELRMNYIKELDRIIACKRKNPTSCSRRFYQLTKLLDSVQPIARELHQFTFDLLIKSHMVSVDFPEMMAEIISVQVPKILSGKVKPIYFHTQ
The experiment in a line: AR-binding inhibition test (wild type). Particulars: read-out: Inhibition rate (%) at 100 nM Wild type.

Data set [2] has as its target T2, LNCaP type mutant androgen receptor (AR) (Homo sapiens, UniProt P10275, T878A).
T2 sequence (P10275 1-920 T878A): T1 sequence (P10275 1-920) with T878A
As to the kind of experiment: AR-binding inhibition test (LNCaP type). As to conditions: read-out: Inhibition rate (%) at 100 nM LNCaP type.

The test system of data set [3] is Human prostate cancer cell strain LNCaP-FGC. As to the kind of experiment: cells. The data set is classed as cell-based. As to conditions: 72 h, read-out: Promotion rate (%) on PSA production at 100 nM.

Substitutions are numbered along the chain they refer to.

One may read the melting point as the temperature of the solid-liquid transition. In general, inhibition refers to the drop in the measured response relative to a control, in per cent. `CC1CCCN1c1ccc(C#N)c2occc12` (stereo not shown) [Compound 95, 4-(2-methyl-1-pyrrolidinyl)-1-benzofuran-7-carbonitrile] had a melting point of 82 to 83 °C. Besides, the inhibition at 0.1 µM in data set [1] amounted to 92%. Besides, the inhibition at 0.1 µM in data set [2] worked out at 105%.

Regarding `N#Cc1ccc(N2CCC(CCO)C2)c2ccsc12` (stereo not shown) [Compound 101, 4-[3-(2-hydroxyethyl)-1-pyrrolidinyl]-1-benzothiophene-7-carbonitrile], the melting point was 109 to 111 °C. The activation at 0.1 µM in data set [3] is 86%. Also, the inhibition at 0.1 µM in data set [1] was 93%. Moreover, in data set [2], the inhibition at 0.1 µM stood at 97%.

Consider `N#Cc1ccc(N2CCCCC2)c2ccsc12` [Compound 73, 4-(1-piperidinyl)-1-benzothiophene-7-carbonitrile], for which the melting point is 99 to 100 °C. The inhibition at 0.1 µM in data set [1] turned out to be 95%. Moreover, the inhibition at 0.1 µM in data set [2] came out at 95%.

`N#Cc1ccc(N2CCC(CCO)CC2)c2ccccc12` [Compound 78, 4-[4-(2-hydroxyethyl)-1-piperidinyl]-1-naphthonitrile] came in with a melting point of 128 to 129 °C. For the same compound, the activation at 0.1 µM in data set [3] is 89%. Also, the inhibition at 0.1 µM in data set [1] was 92%. In data set [2], the inhibition at 0.1 µM is 97%.

On to `C[C@H]1[C@H](O)CCN1c1ccc(C#N)c2sccc12` [Compound 115, 4-[(2S,3R)-3-hydroxy-2-methyl-1-pyrrolidinyl]-1-benzothiophene-7-carbonitrile], for which the melting point lay in the range of 145 to 146 °C. Also, in data set [3], the activation at 0.1 µM turned out to be 76%. In data set [1], the inhibition at 0.1 µM is 93%. Moreover, in data set [2], the inhibition at 0.1 µM worked out at 97%.

In the case of `N#Cc1ccc(N2CCC(CO)CC2)c2ccccc12` [Compound 30, 4-[4-(hydroxymethyl)-1-piperidinyl]-1-naphthonitrile], the melting point lay in the range of 135 to 136 °C. Moreover, in data set [3], the activation at 0.1 µM was 100%. Besides, in data set [1], the inhibition at 0.1 µM was determined as 105%. The inhibition at 0.1 µM in data set [2] was found to be 113%.

`N#Cc1ccc(N2CCC(O)C2)c2ccccc12` (stereo not shown) [Compound 18, 4-(3-hydroxy-1-pyrrolidinyl)-1-naphthonitrile] had a melting point of 138 to 139 °C. In addition, the inhibition at 0.1 µM in data set [1] is 96%. For the same compound, the inhibition at 0.1 µM in data set [2] worked out at 79%.

`N#Cc1ccc(N2CCSCC2)c2ccccc12` [Compound 8, 4-(4-thiomorpholinyl)-1-naphthonitrile]: the melting point was 130 to 131 °C. Further, in data set [3], the activation at 0.1 µM came to 71%. In addition, the inhibition at 0.1 µM in data set [1] was 92%. Moreover, the inhibition at 0.1 µM in data set [2] came to 96%.

Regarding `C[C@H]1C[C@@H](O)CN1c1ccc(C#N)c2sccc12` [Compound 109, 4-[(2S,4R)-4-hydroxy-2-methyl-1-pyrrolidinyl]-1-benzothiophene-7-carbonitrile], the melting point was 102 to 103 °C. Further, the activation at 0.1 µM in data set [3] was 86%. Further, in data set [1], the inhibition at 0.1 µM came out at 98%. In addition, in data set [2], the inhibition at 0.1 µM is 99%.

`N#Cc1ccc(N2CCC(F)C2)c2ccsc12` (stereo not shown) [Compound 100, 4-(3-fluoro-1-pyrrolidinyl)-1-benzothiophene-7-carbonitrile] returned a melting point of 151 to 152 °C. In addition, the activation at 0.1 µM in data set [3] worked out at 82%. Further, the inhibition at 0.1 µM in data set [1] stood at 97%. Besides, in data set [2], the inhibition at 0.1 µM was determined as 92%.
